In US20240132457A1, “3-(2-(BENZO[D]THIAZOL-2-YL)-2-(PHENYLSUFONAMIDO)ETHYL)BENZIMIDAMIDE DERIVATIVES AND RELATED COMPOUNDS AS TMPRSS2 INHIBITORS FOR THE TREATMENT OF VIRAL INFECTIONS” (INTEGERBIO, INC., priority 2020, published 2024):
pIC50: −log10 of the molar value.

What was measured:
Assay type in all cases: biochemical
[1] = biological target: T1, Recombinant human TMPRSS2 protein (106-492 aa) (Homo sapiens, UniProt O15393); test: TMPRSS2 Assay 1 (Example 41), fluorogenic Boc-Gln-Ala-Arg-AMC cleavage; conditions: TMPRSS2 10 nM, substrate 25 μM, 20 min pre-incubation
T1 construct: Human TMPRSS2-(AA 106-492)-; purchased CusaBio CSB-YP023924HU; host or cells: yeast
T1 sequence (O15393 106-492): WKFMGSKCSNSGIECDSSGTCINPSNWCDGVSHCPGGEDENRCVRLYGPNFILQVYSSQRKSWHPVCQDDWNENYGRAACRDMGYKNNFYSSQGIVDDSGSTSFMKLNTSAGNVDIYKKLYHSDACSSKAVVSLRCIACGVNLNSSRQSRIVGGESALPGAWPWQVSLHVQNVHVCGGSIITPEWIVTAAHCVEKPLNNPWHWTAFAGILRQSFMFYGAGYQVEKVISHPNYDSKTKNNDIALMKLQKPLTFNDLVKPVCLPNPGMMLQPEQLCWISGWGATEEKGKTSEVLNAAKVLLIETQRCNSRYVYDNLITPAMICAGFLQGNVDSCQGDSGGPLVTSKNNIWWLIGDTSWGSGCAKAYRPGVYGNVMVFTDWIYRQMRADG
Protocol: The enzyme (TMPRSS2, CusaBio cat #CSB-YP023924HU. Recombinant human TMPRSS2 protein (106-492 aa)N-terminal 6×His-tagged (“6×His” disclosed as SEQ ID NO: 4), expressed in yeast cells; MW=44.8 kDa, lyophilized from 20 mM: Tris HCl, 0.5 M NaCl, 6% Trehalose, pH 8.0, >85% purity as determined by SDS-PAGE. Uniprot: 015393; 10 nM in the reaction) and substrate (Boc-Gln-Ala-Arg-AMC; Enzo Cat #BML-P237-0005, MW=581.76 Da. 25 μM in the reaction) were prepared in Reaction Buffer (50 mM Tris-HCl pH 8, 150 mM NaCl, 0.005% Brij35, 1% DMSO). After the enzyme solution was delivered into the reaction well, the compounds in DMSO were delivered to the reaction mixture by using Acoustic Technology (Echo 550, LabCyte Inc. Sunnyvale, CA) in nanoliter range. After 20 min pre-incubation, the substrate solution was delivered into the reaction well to initiate the reaction. The enzyme activities were monitored every 5 min as a time-course measurement of the increase in fluorescence signal from fluorescently-labeled peptide substrate for 120 min. at room temperature. Data was analyzed by taking slope*(signal/time) of linear portion of measurement. The slope was calculated using Excel, and the curve fits were performed using Prism software.

Cathepsin B = Cathepsin B (Homo sapiens, UniProt P07858); test: Non-TMPRSS2 protease panel: Cathepsin B; conditions: 10-dose, 3-fold from 10 μM
Protocol: (§1) Biochemical activity of compound 1 (racemic mixture, batch 1), compound 3 (racemic), compound 11, and compound 2 (enantiomer 1, batch 1) in proteases indicated in Table 21, Table 22, Table 23, and Table 24, respectively, were measured by testing the compounds in a 10-dose IC50 with a 3-fold series dilution starting at 10 μM against the proteases. The protease activities were monitored as a time-course measurement of the increase in fluorescence signal from fluorescently-labeled peptide substrate, and initial linear portion of slope (signal/min) was analyzed. The curve fits were performed when the activities at the highest concentration of compounds were less than 65%.

FXa = biological target: T2, FXa (Homo sapiens, UniProt P00742); test: Non-TMPRSS2 protease panel: FXa; conditions: 10-dose, 3-fold from 10 μM
T2 construct: consisting of FXa, Kallikrein 1, MMP 1
T2 sequence (P00742 235-488 limits assumed): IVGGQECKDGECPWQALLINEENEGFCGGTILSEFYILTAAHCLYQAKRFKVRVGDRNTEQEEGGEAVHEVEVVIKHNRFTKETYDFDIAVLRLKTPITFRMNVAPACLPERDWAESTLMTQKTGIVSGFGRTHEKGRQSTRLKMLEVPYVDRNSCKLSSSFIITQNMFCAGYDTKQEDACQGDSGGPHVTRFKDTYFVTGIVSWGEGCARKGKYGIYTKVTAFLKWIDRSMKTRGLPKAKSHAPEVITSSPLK
T2 sequence (P00742 41-179 partner limits assumed): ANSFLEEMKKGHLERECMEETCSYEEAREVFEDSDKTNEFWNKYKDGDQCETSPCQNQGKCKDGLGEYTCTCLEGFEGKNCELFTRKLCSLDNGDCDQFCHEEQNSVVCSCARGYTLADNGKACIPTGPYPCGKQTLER
Protocol: as §1

Kallikrein 1 = Kallikrein 1 (Homo sapiens, UniProt P06870); test: Non-TMPRSS2 protease panel: Kallikrein 1; conditions: 10-dose, 3-fold from 10 μM
Kallikrein 1, sequence (P06870 25-262): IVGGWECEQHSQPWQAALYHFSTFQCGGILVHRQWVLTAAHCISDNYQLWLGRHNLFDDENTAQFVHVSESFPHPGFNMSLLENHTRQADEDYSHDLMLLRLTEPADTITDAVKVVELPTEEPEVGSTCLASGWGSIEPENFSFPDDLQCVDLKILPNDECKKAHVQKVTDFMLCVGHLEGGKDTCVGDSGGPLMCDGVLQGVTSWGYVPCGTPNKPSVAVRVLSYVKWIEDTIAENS
Protocol: as §1

Kallikrein 14 = biological target: T3, Kallikrein 14 (Homo sapiens, UniProt Q9P0G3); test: Non-TMPRSS2 protease panel: Kallikrein 14; conditions: 10-dose, 3-fold from 10 μM
T3 sequence (Q9P0G3 25-251): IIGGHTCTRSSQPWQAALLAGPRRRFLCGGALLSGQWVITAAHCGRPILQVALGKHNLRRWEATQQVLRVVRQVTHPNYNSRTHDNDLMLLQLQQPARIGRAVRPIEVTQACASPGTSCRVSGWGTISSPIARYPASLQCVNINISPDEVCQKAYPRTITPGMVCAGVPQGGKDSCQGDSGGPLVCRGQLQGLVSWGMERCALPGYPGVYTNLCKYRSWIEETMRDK
Protocol: as §1

MMP 1 = biological target: T4, MMP 1 (Homo sapiens, UniProt P03956); test: Non-TMPRSS2 protease panel: MMP 1; conditions: 10-dose, 3-fold from 10 μM
T4 sequence (P03956 100-469): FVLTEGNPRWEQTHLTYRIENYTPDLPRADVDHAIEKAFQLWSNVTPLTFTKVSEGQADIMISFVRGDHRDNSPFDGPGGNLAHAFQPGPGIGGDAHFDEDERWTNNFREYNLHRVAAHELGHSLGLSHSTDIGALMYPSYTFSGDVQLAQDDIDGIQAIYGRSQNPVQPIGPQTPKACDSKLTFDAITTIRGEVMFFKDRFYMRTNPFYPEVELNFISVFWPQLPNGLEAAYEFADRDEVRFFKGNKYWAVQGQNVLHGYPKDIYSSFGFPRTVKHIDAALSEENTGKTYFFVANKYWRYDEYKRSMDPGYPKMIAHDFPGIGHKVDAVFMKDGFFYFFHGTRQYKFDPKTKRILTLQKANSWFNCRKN
Protocol: as §1

MMP 2 = biological target: T5, MMP 2 (Homo sapiens, UniProt P08253); test: Non-TMPRSS2 protease panel: MMP 2; conditions: 10-dose, 3-fold from 10 μM
T5 sequence (P08253 110-660): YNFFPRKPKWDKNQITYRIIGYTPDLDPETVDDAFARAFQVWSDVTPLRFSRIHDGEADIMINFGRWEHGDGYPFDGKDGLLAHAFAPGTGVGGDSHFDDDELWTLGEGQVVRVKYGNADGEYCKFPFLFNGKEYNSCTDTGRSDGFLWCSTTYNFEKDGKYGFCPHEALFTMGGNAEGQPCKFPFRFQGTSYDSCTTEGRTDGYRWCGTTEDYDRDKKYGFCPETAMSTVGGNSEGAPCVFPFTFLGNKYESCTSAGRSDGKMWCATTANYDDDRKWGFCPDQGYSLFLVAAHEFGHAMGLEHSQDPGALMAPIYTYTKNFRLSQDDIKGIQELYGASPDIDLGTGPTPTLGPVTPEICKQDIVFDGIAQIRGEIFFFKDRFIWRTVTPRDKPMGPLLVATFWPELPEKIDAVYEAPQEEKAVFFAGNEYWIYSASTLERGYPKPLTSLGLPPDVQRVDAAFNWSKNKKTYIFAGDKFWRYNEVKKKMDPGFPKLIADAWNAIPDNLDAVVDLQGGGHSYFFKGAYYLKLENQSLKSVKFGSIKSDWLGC
Protocol: as §1

MMP 13 = MMP 13 (Homo sapiens, UniProt P45452); test: Non-TMPRSS2 protease panel: MMP 13; conditions: 10-dose, 3-fold from 10 μM
Protocol: as §1

Mpro = biological target: T6, Mpro (Severe acute respiratory syndrome coronavirus 2, UniProt P0DTD1); test: Non-TMPRSS2 protease panel: Mpro; conditions: 10-dose, 3-fold from 10 μM
T6 construct: MMP 14, Mpro, Plasma Kallikrein
Protocol: as §1

Plasma Kallikrein = Plasma Kallikrein (Homo sapiens, UniProt P03952); test: Non-TMPRSS2 protease panel: Plasma Kallikrein; conditions: 10-dose, 3-fold from 10 μM
Plasma Kallikrein, sequence (P03952 391-638 limits assumed): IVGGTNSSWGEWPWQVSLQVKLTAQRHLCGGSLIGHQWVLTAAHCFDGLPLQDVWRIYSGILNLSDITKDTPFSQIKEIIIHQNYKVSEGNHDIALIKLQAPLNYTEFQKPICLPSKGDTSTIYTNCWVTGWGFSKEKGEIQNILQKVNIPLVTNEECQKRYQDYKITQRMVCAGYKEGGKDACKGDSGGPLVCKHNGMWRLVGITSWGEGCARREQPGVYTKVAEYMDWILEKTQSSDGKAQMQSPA
Plasma Kallikrein, sequence (P03952 20-390 partner limits assumed): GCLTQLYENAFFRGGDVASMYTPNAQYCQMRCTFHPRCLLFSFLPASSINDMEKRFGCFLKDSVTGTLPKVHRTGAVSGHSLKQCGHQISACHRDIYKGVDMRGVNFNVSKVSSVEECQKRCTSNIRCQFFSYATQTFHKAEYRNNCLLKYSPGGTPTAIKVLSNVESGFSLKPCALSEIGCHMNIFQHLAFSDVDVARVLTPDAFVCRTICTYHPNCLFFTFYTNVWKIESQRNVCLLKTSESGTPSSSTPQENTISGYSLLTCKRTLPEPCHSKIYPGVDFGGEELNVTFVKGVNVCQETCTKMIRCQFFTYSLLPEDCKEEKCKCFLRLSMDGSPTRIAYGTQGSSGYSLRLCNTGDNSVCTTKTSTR
Protocol: as §1

Thrombin a = Thrombin a (Homo sapiens, UniProt P00734); test: Non-TMPRSS2 protease panel: Thrombin a; conditions: 10-dose, 3-fold from 10 μM
Protocol: as §1

Tryptase g1 = Tryptase g1 (Homo sapiens, UniProt Q9NRR2); test: Non-TMPRSS2 protease panel: Tryptase g1; conditions: 10-dose, 3-fold from 10 μM
Tryptase g1, sequence (Q9NRR2 20-321): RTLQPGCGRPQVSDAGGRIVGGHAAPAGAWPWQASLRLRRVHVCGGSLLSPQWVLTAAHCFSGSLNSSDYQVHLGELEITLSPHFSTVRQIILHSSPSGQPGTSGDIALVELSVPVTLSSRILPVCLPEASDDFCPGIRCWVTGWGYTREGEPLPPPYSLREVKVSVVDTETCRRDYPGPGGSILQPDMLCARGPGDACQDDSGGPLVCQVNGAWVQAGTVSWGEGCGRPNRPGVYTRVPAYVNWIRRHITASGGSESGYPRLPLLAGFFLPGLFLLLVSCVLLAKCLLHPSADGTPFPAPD
Protocol: as §1

SMILES: N=C(N)c1cccc(CC(NS(=O)(=O)c2ccccc2)c2nc3ccccc3s2)c1 (racemic) [1 (racemic mixture, batch 1), 3-[2-Benzenesulfonamido-2-(1,3-benzothiazol-2-yl)ethyl]benzene-1-carboximidamide]
- pIC50 [1]: > 5.00
- pIC50 (Cathepsin B): < 5.00
- pIC50 (FXa; FXa): < 5.00
- pIC50 (Kallikrein 1): > 5.00
- pIC50 (Kallikrein 14): < 5.00
- pIC50 (MMP 1): < 5.00
- pIC50 (MMP 2): < 5.00
- pIC50 (MMP 13): < 5.00
- pIC50 (Mpro): < 5.00
- pIC50 (Plasma Kallikrein): < 5.00
- pIC50 (Thrombin a): < 5.00
- pIC50 (Tryptase g1): < 5.00

SMILES: N=C(N)c1cccc(CC(NS(=O)(=O)c2cccc(-c3ccc(Cl)cc3Cl)c2)c2nc3ccccc3s2)c1 (racemic) [3 (racemic), 3-[2-(1,3-Benzothiazol-2-yl)-2-{2′,4′-dichloro-[1,1′-biphenyl]-3-sulfonamido}ethyl]benzene-1-carboximidamide]
- pIC50 [1]: > 5.00
- pIC50 (Cathepsin B): < 5.00
- pIC50 (FXa; FXa): > 5.00
- pIC50 (Kallikrein 1): < 5.00
- pIC50 (Kallikrein 14): < 5.00
- pIC50 (MMP 1): < 5.00
- pIC50 (MMP 2): > 5.00
- pIC50 (MMP 13): < 5.00
- pIC50 (Mpro): < 5.00
- pIC50 (Plasma Kallikrein): < 5.00
- pIC50 (Thrombin a): > 5.00
- pIC50 (Tryptase g1): > 5.00

SMILES: N=C(N)c1cccc(C[C@H](NS(=O)(=O)c2ccccc2)c2nnco2)c1 (single isomer, unassigned) [Compound 2 (enantiomer 1, batch 1), 3-[2-Benzenesulfonamido-2-(1,3,4-oxadiazol-2-yl)ethyl]benzene-1-carboximidamide]
- pIC50 [1]: < 5.00
- pIC50 (Cathepsin B): < 5.00
- pIC50 (FXa; FXa): < 5.00
- pIC50 (Kallikrein 1): < 5.00
- pIC50 (Kallikrein 14): < 5.00
- pIC50 (MMP 1): < 5.00
- pIC50 (MMP 2): < 5.00
- pIC50 (MMP 13): < 5.00
- pIC50 (Mpro): < 5.00
- pIC50 (Plasma Kallikrein): < 5.00
- pIC50 (Thrombin a): < 5.00
- pIC50 (Tryptase g1): < 5.00

SMILES: COc1ccc2nc(C(Cc3cccc(C(=N)N)c3)NS(=O)(=O)c3ccccc3)sc2c1 (centres unmarked) [Compound 11, 3-[2-Benzenesulfonamido-2-(6-methoxy-1,3-benzothiazol-2-yl)ethyl]benzene-1-carboximidamide]
- pIC50 (Cathepsin B): < 5.00
- pIC50 (FXa; Factor Xa): < 5.00
- pIC50 (Kallikrein 1): > 5.00
- pIC50 (Kallikrein 14): < 5.00
- pIC50 (MMP 1): < 5.00
- pIC50 (MMP 2): < 5.00
- pIC50 (MMP 13): < 5.00
- pIC50 (Mpro): < 5.00
- pIC50 (Plasma Kallikrein): < 5.00
- pIC50 (Thrombin a): < 5.00
- pIC50 (Tryptase g1): < 5.00
